As usually defined, the EC50 is the concentration needed to bring the measured effect to its halfway point.

Here are results for 2 molecules from patent publication US20180327354A1, “Unnatural Analogues of Calcitriol and Uses Thereof” (Vidasym, Inc., priority 2009, published 2018).

For one series, the system named is CD14. Nature of the series: CD14 expression induction in HL-60 promyelocytic leukemia cells (real-time RT-PCR). The series is classed as cell-based. The note with it: Homo sapiens; HL-60 cells, 24 h, mRNA normalized to GAPDH; Table 3 summary, some values average of 3 or more determinations; read-out: CD14 EC50. The method, then:
(§1) Some compounds were tested in HL-60 promyelocytic leukemia cells and a primary culture of human coronary artery smooth muscle cells (HCASMC) for CYP24A1 induction. It is well documented that CYP24A1 has a VDRE in its promoter region and is a specific target gene of VDR (Meyer et al., 2007, J Biol Chem 282: 22344-22352). […] Compounds also were tested in HCASMC for their effects in inducing VDR. To assess the suitability of a compound for modulating immune responses, compounds were tested in HL-60 for their effects in inducing CD14 expression. To assess the suitability of a compound for treating thrombosis, compounds also were tested in HCASMC for their effects in modulating thrombomodulin and thrombospondin-1.
(§2) Compounds are tested in human HL-60 promyelocytic leukemia cells to assess their potency in inducing the expression of CYP24A1 and CD14. HL-60 cells are cultured in IMDM supplemented with 20% heat-inactivated fetal bovine serum at 37° C. in a humidified 5% CO2-95% air atmosphere. Cells are plated into 6 well plates and treated with test agent for 24 h. Cells are lysed with the addition of 1 mL of Trizol and RNA prepared according to the manufacturer's protocol.
(§3) Real-time reverse transcription-PCR is performed with the forward and reverse PCR primers and 250 nM of the TAQMAN™ probe specifically designed for CYP24A1 or CD14. (A TAQMAN™ probe is comprised of a fluorophore covalently attached to the 5′-end of the oligonucleotide probe and a quencher at the 3′-end.) After the data acquisition, the CYP24A1 or CD14 mRNA expression level is normalized to the GAPDH mRNA level. FIGS. 2A and 2B show the results from a typical CYP24A1 (FIG. 2A) and CD14 (FIG. 2B) expression study.
For orientation: In qPCR the cycle at which signal appears reflects the starting amount.

The subject of series [1] is CYP24A1. The series can be described thus: CYP24A1 expression induction in HL-60 promyelocytic leukemia cells (real-time RT-PCR). It counts as cell-based. The following applies: Homo sapiens; HL-60 cells, 24 h, mRNA normalized to GAPDH; Table 3 summary, some values average of 3 or more determinations; read-out: CYP24A1 EC50. On the procedure: as §1, §2, §3
The next series concerns VDR. The series can be described thus: VDR expression induction in primary culture of human coronary artery smooth muscle cells. The following applies: HCASMC, 24 h, Table 4 summary, some values average of 2 or more determinations, read-out: EC50 for VDR induction. The series is classed as cell-based. On the procedure: (§4) Compounds were tested in a primary culture of HCASMC to assess their potency in inducing the expression of CYP24A1 and VDR.
(§5) Primary culture of HCASMC was grown in smooth muscle growth medium SmGM-2 containing 5.5 mM glucose, 5% FBS, 50 μg/ml gentamicin, 50 ng/ml amphotericin-B, 5 μg/ml insulin, 2 ng/ml hFGF, and 0.5 ng/ml hEGF at 37° C. in a humidified 5% CO2-95% air. Cells were grown to >80% confluence and used within five passages.
(§6) Cells were plated into 6 well plates and treated with test agent for 24 h. Cells were lysed with the addition of 1 mL of Trizol and RNA prepared according to the manufacturer's protocol.
(§7) Real-time reverse transcription-PCR was performed with the forward and reverse PCR primers and […] of the TAQMAN™ probe specifically designed for CYP24A1 or VDR. (A TAQMAN™ probe is comprised of a fluorophore covalently attached to the 5′-end of the oligonucleotide probe and a quencher at the 3′-end.) After the data acquisition, the CYP24A1 or VDR mRNA expression level was normalized to the GAPDH mRNA level. […] Group mean±STDEV (standard deviation) are presented.

The subject of another series is normal mice. Nature of the series: Hypercalcemic side effect profile and serum PTH in normal mice. The following applies: i.p. dosing once daily for 3 consecutive days. The series is classed as in vivo, Male C57/BL mice. On the procedure: The normal mice model is a convenient and quick way to assess the hypercalcemic side effect profile of compounds. At the same time, data on serum PTH can be collected.
Male C57/BL mice at 18-20 g are dosed with the test agent at 100 al/mouse (concentrations as indicated) i.p. once daily for 3 consecutive days or at 10 ml/kg, p.o. gavage, once daily for 5 days. The animals were harvested 24 h after the last dose by anesthetization with ketamine/xylazine. Blood was collected from the aorta. Serum total calcium was measured using the QuantiChrom Calcium Assay kit and/or the Roche Hitachi 912 Chemistry Analyzer. Serum PTH was measured using a PTH Immunoassay. Vehicle control was 100 l/mouse of 5% EtOH/95% propylene glycol for i.p. dosing or 10 ml/kg of 20% Hydroxypropyl-β-Cyclodextrin for p.o. gavage dosing.
For serum chemistry data, group mean±SEM are presented. Differences between vehicle and compound-treated groups are assessed using a one-way ANOVA followed by a Dunnett's post-hoc test. FIGS. 3A and 3B show the results from a typical p.o. gavage dosing study (n=4-9 per group).

The subject of series [2] is CYP24A1. The series can be described thus: CYP24A1 expression induction in primary culture of human coronary artery smooth muscle cells. It counts as cell-based. The following applies: HCASMC, 24 h, Table 4 summary, some values average of 2 or more determinations, read-out: EC50 for CYP24A1 induction. The method, then:
as §4, §5, §6, §7

Series [3] can be described thus: Maximal absorbance wavelength and extinction coefficient (spectrophotometer scan). It counts as physicochemical. The following applies: 100 μM in 50:50 de-ionized water and ethanol. On the procedure:
To determine the maximal absorbance wavelength (ODmax) and the extinction coefficients for the compounds, each compound is diluted in a 50:50 solution (by volume) of de-ionized water and ethanol at 100 μM and scanned by a spectrophotometer.

A further series relates to thrombospondin-1. The series can be described thus: Thrombospondin-1 protein in human coronary artery smooth muscle cells (Western blot). The series is classed as cell-based. The note with it: HCASMC, 48 h, FIG. 21A. On the procedure:
(§8) Human coronary artery smooth muscle cells (HCASM) were incubated with Vida-5 or Vida-11 at different concentrations for 48 h and then were solubilized in 50 al of SDS-PAGE sample buffer. The protein content in each sample was determined by the bicinchoninic acid protein assay. Samples were resolved by SDS-PAGE using a 4-12% NuPAGE gel, and proteins were electrophoretically transferred to polyvinylidene fluoride membrane for Western blotting. The membrane was blocked for 1 h at 25° C. with 5% nonfat dry milk in phosphate buffered saline Tween-20 (PBS-T) and then incubated with a mouse anti-thrombospondin-1 monoclonal antibody (2,000-fold dilution), or a mouse anti-TM monoclonal antibody (2,000-fold dilution) in PBS-T overnight at 4° C.
(§9) The membrane was washed with PBS-T and incubated with a horseradish peroxidase-labeled anti-mouse antibody for 1 h at 25° C. The membrane was then incubated with Amersham ECL Plus Western Blotting Detection Reagents. Specific bands were visualized by the Multiimage II of Alpha Innotech imaging system. Band intensity was quantified using Spot Denso.
(In general: A western blot detects proteins with antibodies after separation by electrophoresis.)

Another series deals with thrombomodulin. Nature of the series: Thrombomodulin protein in human coronary artery smooth muscle cells (Western blot). The series is classed as cell-based. The following applies: HCASMC, 48 h, FIG. 21B. The method, then: as §8, §9
In a further series the test system is uremic rats. The following applies: cited from earlier work.
For series [4] the following is noted: clinical studies, Martin et al., 2001; cited from earlier work.
Setting [5] is: Slatopolsky et al., 1998, converted from ng/rat.

“Also recorded” adds a separate entry of the source. Read-outs that look alike come from different tables or passages of the source.

As for `C=C1[C@H](O)CC(=C/C=C2\CCCC3(C)C2CCC3[C@@H](C)OCCCC(O)(CC)CC)C[C@H]1O` (stereo partly drawn) [Vida-21, (1R,3R)-5-((E)-2-((1S,7αS)-1-((R)-1-(4-ethyl-4-hydroxyhexyloxy)ethyl)-7α-methyldihydro-1H-inden-4(2H, 5H, 6H, 7H, 7αH)-ylidene)ethylidene)-2-methylenecyclohexane-1,3-diol], the concentration giving a half-maximal response (EC50) with CD14 stood at 1.1 nM; in the series with CYP24A1 [1], 0.8 nM; in the series on VDR, 2.5 nM; with CYP24A1 [2] it was 1.8 nM. For the same molecule, the “dose at which compound starts to raise serum Ca” value in the series on normal mice is 0.1 µg/kg. This molecule also displayed a maximal absorbance wavelength in [3] of 253 nm. In [3] (in M-1·cm-1 (unit assumed)), this molecule returned an extinction coefficient of 58710. For the same molecule, the thrombospondin-1 protein expression result in the series on thrombospondin-1 is reported as “suppress; also recorded: significantly reduced”. Moreover, the thrombomodulin protein expression entry with thrombomodulin is listed as “induce; also recorded: increased”.
As to `C[C@H](/C=C/[C@H](C)C(C)(C)O)[C@H]1CC[C@H]2/C(=C/C=C3C[C@@H](O)C[C@H](O)C3)CCC[C@]12C` [paricalcitol], the “dose at which compound raises serum Ca” value in the series with uremic rats (Noonan et al., 2008) is 0.083 µg/kg; in the series on uremic rats (setting [5]) it was roughly 0.0625 µg/kg; with uremic rats (Slatopolsky et al., 1998), 25 ng/rat. Also, the “dose at which compound starts to suppress serum PTH” value is 0.083 µg/kg in the series with uremic rats (Noonan et al., 2008); roughly 0.02 µg/kg with uremic rats (setting [5]); 8 ng/rat with uremic rats (Slatopolsky et al., 1998). Besides, the “fold less potent in raising serum calcium than calcitriol” value in [4] is reported as 10 fold. Further, the “fold less potent in suppressing PTH than calcitriol” value in series [4] is “about 3 fold”.
